Test results taken from patent publication US20120028918A1, “PHARMACEUTICAL COMPOSITIONS AND METHODS OF MAKING SAME” (GLAXO WELLCOME MANUFACTURING PTE LTD., priority 2010, published 2012).

Legend:
[1] = biological target: T1, Akt1 (Homo sapiens, UniProt P31749); assay: Akt kinase assay (HTRF, GSK-derived biotinylated peptide substrate); assay type: biochemical; conditions: activated Akt1, HTRF, 120 minute preincubation; read-out: IC50 against Akt1
T1 construct: a middle T tag was added to the 5′ end of the full length Akt1 gene; middle T tag (EYMPME) (N); biotin tag (from pS2neo vector); made in house; host or cells: Drosophila S2 cells
T1 sequence (P31749 whole entry): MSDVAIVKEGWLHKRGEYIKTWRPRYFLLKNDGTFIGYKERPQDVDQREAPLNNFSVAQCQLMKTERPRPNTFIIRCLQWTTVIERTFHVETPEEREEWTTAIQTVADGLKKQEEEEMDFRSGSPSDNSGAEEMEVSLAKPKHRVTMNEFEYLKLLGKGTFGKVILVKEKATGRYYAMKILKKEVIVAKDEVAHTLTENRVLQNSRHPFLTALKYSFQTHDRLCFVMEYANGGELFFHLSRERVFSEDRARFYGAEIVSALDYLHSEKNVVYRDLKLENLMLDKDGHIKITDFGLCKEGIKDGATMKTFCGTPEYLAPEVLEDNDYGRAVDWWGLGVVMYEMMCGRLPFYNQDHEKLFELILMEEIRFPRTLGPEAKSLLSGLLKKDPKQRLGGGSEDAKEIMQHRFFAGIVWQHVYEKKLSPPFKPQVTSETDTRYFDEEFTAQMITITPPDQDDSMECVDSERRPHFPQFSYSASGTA
Description: (§1) Activated Akt isoforms were assayed utilizing a GSK-derived biotinylated peptide substrate. The extent of peptide phosphorylation was determined by Homogeneous Time Resolved Fluorescence (HTRF) using a europium-coupled monoclonal antibody specific for the phosphopeptide in combination with a streptavidin-linked allophycocyanin (SA-APC) fluorophore which will bind to the biotin moiety on the peptide. When the europium and APC are in proximity (i.e. bound to the same phosphopeptide molecule), a non-radiative energy transfer takes place from the […] to the APC, followed by emission of light from APC at 665 nm.
(§2) Materials required for the assay: • A. 100 nM activated Akt1 or 225 nM activated Akt2 • B. 10×R for AKT assay buffer (500 mM Hepes pH 7.5, 1% PEG m.w. 15000-20000, 1 mM EDTA, 1 mM EGTA, 1% BSA, 20 mM β glycerol phosphate) • C. 1 M KCl • D. 50% glycerol • E. 250 mM MgCl2 • F. 50 mM ATP pH 7.0 • G. 0.2 M DTT • H. 1 mM GSK3α biotinylated peptide (SynPep biotin-[…]-COOH) • I. Stop Buffer: 40 mM EDTA (pH8.4) • J. 8.5 uM SA-APC (PerkinElmer #CR130-100, lot No. N01001K-AAG16) • K. 4.9 uM Eu-W 1024 labeled phos-GSK3 monoclonal antibody (PerkinElmer #CUSM63178) • L. Detection Reagent: 15 mM Tris-HCl ([…]), 0.1% Tween20, 250 nM SA-APC (PerkinElmer #CR130-100, lot No. N01001K-AAG16), 0.735 nM Eu-W1024 labeled phos-GSK3 monoclonal antibody (PerkinElmer #CUSM63178) The reaction was assembled using the following protocol: • A. Add 0.5 uL inhibitor to test wells or 0.5 uL DMSO to no drug control wells. • B. Prepare Enzyme diluent: 18000 uL 10×R for AKT assay buffer, 9600 uL 250 mM MgCl2, 12000 uL 1 M KCl, 18000 uL 50% Glycerol, 900 uL 0.2 M DTT, 121500 uL MilliQ water. • C. Prepare Enzyme mixture (E-Mix): To […] Enzyme diluent, added 4.3 uL of a 100 nM activated AKT1, 1.9 uL of a 225 nM stock of activated Akt2 so concentration AKT1 and Akt2 were 6 pM. • D. 10 uL of Stop Buffer was added manually to wells acting as Background control wells. Initiate preincubation reactions by adding 15 uL of E-Mix using Multidrop 384. Spin down assay plates after the addition of E-Mix. • E. Prepare ATP/Peptide working solution (S-Mix): 10000 uL 10×R for AKT assay buffer, 5000 uL 50% glycerol, 250 uL 0.2M DTT, 600 uL 50 mM ATP, 100 uL 1 mM GSK3 peptide, 34050 uL MilliQ water. • F. To wells where preincubation is being conducted, after the 120 minute preincubation, initiate kinase reactions by adding 5 uL S-Mix using FRD. […] Let kinase assays run for 60 minutes at 25° C. • G. Stop kinase reactions by adding 10 uL Stop Buffer, using Multidrop 384, to wells other than background wells. • H. 10 uL of Detection Reagent was added using FRD and stopped assays were stored at room temperature for more than 2 hours. • I. The plates were read on PHERAstar.

[2] = biological target: T2, Akt2 (Homo sapiens, UniProt P31751); assay: as above; assay type: biochemical; conditions: activated Akt2, HTRF, 120 minute preincubation; read-out: IC50 against Akt2
T2 construct: a middle T tag was added to the 5′ end of the full length Akt2 using the PCR primer; middle T tag (EYMPME) (N); biotin tag (from pS2neo vector); made in house; host or cells: Drosophila S2 cells
T2 sequence (P31751 whole entry): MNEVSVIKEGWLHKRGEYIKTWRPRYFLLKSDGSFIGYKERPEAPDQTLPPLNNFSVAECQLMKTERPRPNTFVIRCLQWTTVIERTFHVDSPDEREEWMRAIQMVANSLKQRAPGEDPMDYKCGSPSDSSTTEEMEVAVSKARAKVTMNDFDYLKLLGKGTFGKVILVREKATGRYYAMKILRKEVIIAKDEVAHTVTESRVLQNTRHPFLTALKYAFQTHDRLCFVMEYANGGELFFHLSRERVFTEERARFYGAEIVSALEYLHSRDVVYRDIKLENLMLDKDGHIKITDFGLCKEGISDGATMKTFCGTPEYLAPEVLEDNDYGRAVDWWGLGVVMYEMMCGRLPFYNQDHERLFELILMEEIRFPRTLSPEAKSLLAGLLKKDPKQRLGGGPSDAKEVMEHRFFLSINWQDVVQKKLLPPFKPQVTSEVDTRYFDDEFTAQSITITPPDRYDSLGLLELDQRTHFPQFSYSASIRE
Description: as §1, §2

IC50 [1]	IC50 [2]	Compound
91 nM	26 nM	COc1ccc(-c2nc(-c3ccc([C@]4(N)C[C@](C)(O)C4)cc3)c(-c3ccccc3)s2)cn1 [Compound 2-1, (1R,3R)-3-amino-3-(4-(2-(6-methoxypyridin-3-yl)-5-phenylthiazol-4-yl)phenyl)-1-methylcyclobutanol]
40 nM	25 nM	COc1cncc(-c2nc(-c3ccc([C@]4(N)C[C@](C)(O)C4)cc3)c(-c3ccccc3)s2)c1 [Compound 3-1, (1R,3R)-3-amino-3-(4-(2-(5-methoxypyridin-3-yl)-5-phenylthiazol-4-yl)phenyl)-1-methylcyclobutanol]
